Earlier results on two compounds are cited in US7235589B2, “Method of treating patients undergoing kidney dialysis” (Bio Numerik Pharmaceuticals, Inc., priority 2004, dated 2007).

For series [1] the following is noted: accepted value.
In another series the test system is dogs. The following applies: intravenously, doses higher than the accepted oral LD50 for common table salt (3750 mg/kg).
In a further series the test system is mice. The following applies: intravenously, doses higher than the accepted oral LD50 for common table salt (3750 mg/kg).
Another series relates to humans. Conditions: doses exceeding 40 g/m^2.

Consider `[Cl-].[Na+]` [common table salt], for which the “oral LD50” value in series [1] is reported as 3750 mg/kg.

Consider `O=S(=O)([O-])CCSSCCS(=O)(=O)[O-].[Na+].[Na+]` [dimesna, disodium 2,2′-dithiobis ethane sulfonate], for which the adverse effects entry in the series with dogs, with mice and in the series on humans was “no adverse effects” each time.
